Literature values as cited in publication PMC9697394, “Recent Synthesis, Characterization, and Pharmacological Evaluation of Multifunctional Hemorphins Containing Non-Natural Amino Acids with Potential Biological Importance” (Pharmaceuticals, 2022).
Read-outs that look alike come from different tables or passages of the source. Where no end group is shown, it is not given here. [ ]: non-standard residue; d: D form. Ac6c = NC1(C(=O)O)CCCCC1; Orn = NCCC[C@H](N)C(=O)O; Ac5c = NC1(C(=O)O)CCCC1; Dab = NCC[C@H](N)C(=O)O; Dap = NC[C@H](N)C(=O)O; Aib = CC(C)(N)C(=O)O; Sar = CNCC(=O)O

What was measured:
mice [1] = conditions: MES test in mice
mice [2] = conditions: rotarod
[3] = by potentiometric titration
Text: Table 6 Parameters of the voltammetric measurements and the electrochemical data of peptides. | column: pKa1; pKa2 Constants

[4] = for isoelectric point (pI): Figure 6; for charge at pH 7.4 (in words): based on pKa constants and isoelectric points
Text: The structure–activity relationship of a series of new analogs of the shortest of all hemorphins, hemorphin-4, was elucidated by Todorov et al. (compounds P4-1, P4-2, P4-3, P4-4, and P4-5). Modifications have been made by replacing Pro at position 2 with the unnatural and conformationally restricted amino acids Ac5c and Ac6c, as well as introducing the adamantane residue from the N-terminus of the hemorphin-4 molecule that would lead to multiple target systems. […] It is known that some identical amino acid residues can have different reactivity with respect to given chemical reagents. For example, in an enzyme molecule, only one or a small number of side chains of amino acid residues located in the “active” center can bind substrates or coenzymes, while others with the same chemical composition cannot. As is known, a large part of the hydro ...

mice [5] = conditions: 6 Hz test in mice, TPE 10 min
Text: Modifications have been made by replacing Pro at position 2 with the unnatural and conformationally restricted amino acids Ac5c and Ac6c, as well as introducing the adamantane residue from the N-terminus of the hemorphin-4 molecule that would lead to multiple target systems.

[6] = test system: rat locus coeruleus neurons; conditions: in vitro LC neurons; read-out: IC50, inhibition of the spontaneous firing
Text: (§1) Table 5 Bioactive hemorphin peptides. | column: Concentration/Dose

[7] = test system: guinea pig ileum muscle preparation; conditions: merged cell of Table 5, read-out: IC50, inhibition of the electrically induced contractions
Text: as §1

rat mu-opioid receptor = conditions: merged cell of Table 5; read-out: IC50, binds to rat mu-opioid receptor
Text: as §1

[8] = test system: cerebellar Purkinje cells; conditions: in vitro cerebellar Purkinje cells
Text: (§2) Table 5 Bioactive hemorphin peptides. | column: Effect

mice; rat = conditions: hot plate, tail flick test in mice; Randall–Selitto test in rat
Text: as §2

[9] = test system: tumor (L929 and A549) cell cultures; conditions: 0.5 µM epirubicin added 24 h prior to 1 µM valorphin; 1 µM valorphin added 48 h prior to 0.1 µM epirubicin
Text: as §2

[10] = test system: L929 and K562 tumor cells; conditions: 10^−7–10^−13 M concentration range
Text: as §2

mice [11] = conditions: ivPTZ seizure test in mice; TPE 10 min; rank order, hemorphin-7 analogs containing unnatural amino acids
Text: Moreover, this peptide analog had the lowest ...

[12] = TPE 10 min, hemorphin-4 analogs
[13] = Table 2 (MES), TPE 10 min, hemorphin-4 analogs, unit inferred
[14] = TPE 10 min, LVV- and VV-hemorphin-7 analogs
[15] = Table 2 (MES), LVV- and VV-hemorphin-7 analogs, unit inferred
[16] = TPE 10 min, VV-hemorphin-5 analogs
[17] = Table 2 (MES), VV-hemorphin-5 analogs, unit inferred
[18] = LVV- and VV-hemorphin-7 analogs
[19] = VV-hemorphin-7 analogs containing unnatural amino acids

O=C1NC(=O)C(c2ccccc2)(c2ccccc2)N1 [Phenytoin, 5,5′-diphenylhydantoin, reference compound]
ED50 (median effective dose) (mice [1]; TPE 60 min, reference drug, ref not given): 4.92 mg/kg | TD50 (median minimal neurotoxic dose) (mice [2]; TPE 60 min, Table 2, ref not given): >100 mg/kg

Aaa-Tyr-Ac5c-Trp-Thr-NH2 [P4-4]
ED50 (median effective dose) (mice [1]; [12]): 2.33 µg | pKa1 [3]: 6.16 | pKa2 [3]: 8.90 | isoelectric point (pI) [4]: about 7 | charge at pH 7.4 (in words) [4]: positively charged | TD50 (median minimal neurotoxic dose) (mice [2]; [13]): > 10 mg/kg | ED50 (median effective dose) (mice [5]; hemorphin-4 analogs): 0.44 µg

Aaa-Tyr-Ac6c-Trp-Thr-NH2 [P4-5]
ED50 (median effective dose) (mice [1]; [12]): 0.41 µg | pKa1 [3]: 6.20 | pKa2 [3]: 9.06 | isoelectric point (pI) [4]: about 7 | charge at pH 7.4 (in words) [4]: positively charged | TD50 (median minimal neurotoxic dose) (mice [2]; [13]): > 10 mg/kg | ED50 (median effective dose) (mice [5]; hemorphin-4 analogs): 0.64 µg

Aaa-Tyr-Pro-Trp-Thr-NH2 [P4-3]
ED50 (median effective dose) (mice [1]; [12]): 1.66 µg | pKa1 [3]: 3.88 | pKa2 [3]: 6.93 | TD50 (median minimal neurotoxic dose) (mice [2]; [13]): > 10 mg/kg | ED50 (median effective dose) (mice [5]; hemorphin-4 analogs): 0.83 µg

D-Leu-Val-Val-Tyr-Pro-Trp-Thr-Gln-Arg-D-Phe-NH2 [H7-3]
ED50 (median effective dose) (mice [1]; [14]): 0.68 µg | pKa1 [3]: 3.05 | pKa2 [3]: 6.78 | TD50 (median minimal neurotoxic dose) (mice [2]; [15]): > 8 mg/kg

DGRVVYPWTQRFRGD-NH2 [RGD2]
pKa1 [3]: 3.48 | pKa2 [3]: 6.34

IVVYPWTQ-NH2 [V6]
ED50 (median effective dose) (mice [1]; [16]): 16.77 µg | pKa constant (one value given) [3]: 8.01, [48, 49] | TD50 (median minimal neurotoxic dose) (mice [2]; [17]): > 20 mg/kg | ED50 (median effective dose) (mice [5]; VV-hemorphin-5 analogs): 5.55 µg

IVVYPWTQR[dF]-NH2 [H7-1]
pKa1 [3]: 2.98 | pKa2 [3]: 6.12 | ED50 (median effective dose) (mice [5]; [18]): 0.33 µg

IVYPWTQR[dF]-NH2 [H7-2]
ED50 (median effective dose) (mice [1]; [14]): 0.94 µg | pKa1 [3]: 3.09 | pKa2 [3]: 6.62 | TD50 (median minimal neurotoxic dose) (mice [2]; [15]): > 8 mg/kg | ED50 (median effective dose) (mice [5]; [18]): 2.6 µg

Tyr-D-Arg-Phe-Lys-NH2 [DALDA]
IC50 [6]: 20 nM

Tyr-Pro-Leu-Gly-NH2 [Tyr-MIF-1]
IC50 [6]: 37500 nM

Tyr-Pro-Phe-Phe-NH2 [endomorphin-2]
IC50 [6]: 5.3 nM

Tyr-Pro-Phe-Pro-NH2 [morphiceptin]
IC50 [6]: 65 nM

Tyr-Pro-Trp-Gly-NH2 [Tyr-W-MIF-I]
IC50 [6]: 3800 nM

Tyr-Pro-Trp-Phe-NH2 [endomorphin-1]
IC50 [6]: 8.8 nM

Tyr-Pro-Trp-Thr [hemorphin-4]
IC50 [6]: 6700 nM

VVYPWTK-NH2 [V5]
ED50 (median effective dose) (mice [1]; [16]): 3.19 µg | pKa constant (one value given) [3]: 8.24, [48, 49] | TD50 (median minimal neurotoxic dose) (mice [2]; [17]): > 20 mg/kg | ED50 (median effective dose) (mice [5]; VV-hemorphin-5 analogs): 9.89 µg

VVYPWTQ [Valorphin]
IC50 [7]: 10000 nM | IC50 (rat mu-opioid receptor): 14 nM | effect on spontaneous firing (in words) [8]: inhibition of the spontaneous firing | analgesic effect (in words) (mice; rat): opioid analgesic activity | cell death [9]: 100% | effect on tumor cells (in words) [10]: Tumor cell cytolysis

VVYPWTQRFRGD-NH2 [RGD1]
pKa1 [3]: 3.53 | pKa2 [3]: 6.42

VVYPWT[Dab]-NH2 [V3]
pKa constant (one value given) [3]: 8.12, [48, 49]

VVYPWT[Dab]RF-NH2 [VV-H-5]
pKa (Dap, Dab) [3]: 7.21 | pKa (Tyr) [3]: 5.98 | pKa (Val) [3]: 8.08 | ED50 (median effective dose) (mice [5]; [19]): 0.89 µg

VVYPWT[Dap]-NH2 [V2]
pKa constant (one value given) [3]: 9.23, [48, 49] | ED50 (median effective dose) (mice [5]; VV-hemorphin-5 analogs): 9.97 µg

VVYPWT[Dap]RF-NH2 [VV-H-4]
pKa (Dap, Dab) [3]: 5.46 | pKa (Tyr) [3]: 3.14 | pKa (Val) [3]: 7.10 | Comparison of Activity Related to the Threshold Dose (µg/10 µL) for Clonic Seizures (mice [11]): VV–H7 = V–H4 | ED50 (median effective dose) (mice [5]; [19]): 3.83 µg

VVYPWT[Orn]-NH2 [V4]
ED50 (median effective dose) (mice [1]; [16]): 3.63 µg | pKa constant (one value given) [3]: 7.83, [48, 49] | TD50 (median minimal neurotoxic dose) (mice [2]; [17]): > 20 mg/kg | ED50 (median effective dose) (mice [5]; VV-hemorphin-5 analogs): 5.09 µg

VVY[Ac5c]WTQRF-NH2 [VV-H-2]
pKa (Tyr) [3]: 5.34 | pKa (Val) [3]: 8.04 | ED50 (median effective dose) (mice [5]; [19]): 5.69 µg

VVY[Ac5c]WT[Dab]RF-NH2 [VV-H-7]
pKa (Dap, Dab) [3]: 7.26 | pKa (Tyr) [3]: 4.70 | pKa (Val) [3]: 8.21 | ED50 (median effective dose) (mice [5]; [19]): 0.89 µg

VVY[Ac5c]WT[Dap]RF-NH2 [VV-H-6]
pKa (Dap, Dab) [3]: 6.87 | pKa (Tyr) [3]: 4.72 | pKa (Val) [3]: 8.15

VVY[Ac6c]WTQRF-NH2 [VV-H-3]
pKa (Tyr) [3]: 4.83 | pKa (Val) [3]: 7.49 | ED50 (median effective dose) (mice [5]; [19]): 5.69 µg

VVY[Ac6c]WT[Dab]RF-NH2 [VV-H-9]
pKa (Dap, Dab) [3]: 8.80 | pKa (Tyr) [3]: 4.66 | pKa (Val) [3]: 9.08 | ED50 (median effective dose) (mice [5]; [19]): 1.09 µg

VVY[Ac6c]WT[Dap]RF-NH2 [VV-H-8]
pKa (Dap, Dab) [3]: 8.03 | pKa (Tyr) [3]: 5.27 | pKa (Val) [3]: 9.20 | ED50 (median effective dose) (mice [5]; [19]): 1.01 µg

Y[Ac5c]WT-NH2 [P4-1]
pKa1 [3]: 3.89 | pKa2 [3]: 6.52 | ED50 (median effective dose) (mice [5]; hemorphin-4 analogs): 0.52 µg

Y[Ac6c]WT-NH2 [P4-2]
ED50 (median effective dose) (mice [1]; [12]): 2.33 µg | pKa1 [3]: 3.93 | pKa2 [3]: 6.71 | TD50 (median minimal neurotoxic dose) (mice [2]; [13]): > 10 mg/kg | ED50 (median effective dose) (mice [5]; hemorphin-4 analogs): 2.16 µg

Y[dR]F[Sar] [TAPS]
IC50 [6]: 1.9 nM

[Aib]VVYPWTQ-NH2 [V7]
ED50 (median effective dose) (mice [1]; [16]): 16.55 µg | pKa constant (one value given) [3]: 8.17, [48, 49] | TD50 (median minimal neurotoxic dose) (mice [2]; [17]): > 20 mg/kg | ED50 (median effective dose) (mice [5]; VV-hemorphin-5 analogs): 6.61 µg

[dV]VYPWTQR[dF]-NH2 [H7-4]
ED50 (median effective dose) (mice [1]; [14]): 2.54 µg | pKa1 [3]: 3.22 | pKa2 [3]: 6.52 | TD50 (median minimal neurotoxic dose) (mice [2]; [15]): > 15 mg/kg

rhodamineB-Gly-Tyr-Pro-Trp-Thr-NH2 [Rh-1]
pKa1 [3]: 2.81 | pKa2 [3]: 6.60

rhodamineB-β-Ala-Tyr-Pro-Trp- Thr-NH2 [Rh-2]
pKa1 [3]: 2.78 | pKa2 [3]: 6.38

rhodamineB-γ-Abu-Tyr-Pro-Trp-Thr-NH2 [Rh-3]
pKa1 [3]: 2.86 | pKa2 [3]: 6.39
